# Laboratory results taken from US4581359A, “Pharmacological treatments with N-7-substituted derivatives of theophylline” (priority 1984, dated 1986).
# Several values for one entry are separate records, joined by “and”; a condition that tells them apart may be missing. Identical values can stand only once. Like-named read-outs stand apart in the source and are kept apart here.
# Tests used:
# [1] = Dyphylline 20 min intravenous infusion in two healthy male subjects: pharmacokinetics, blood pressure, pulse (Example 2); type: in vivo, human; settings: bolus injection
# [2] = cited from earlier work
# [3] = cited from earlier work; remark: listed apart in the source
# [4] = Dyphylline intravenous infusion in rabbits: blood concentration, pharmacokinetics, toxicity (Example 1); type: in vivo, female New Zealand White rabbits
# Excerpt: A high-pressure liquid chromatographic (HPLC) system consisted of a delivery pump (M-6000A, Waters Associates, Milford, Mass.), sample injection apparatus (Model U6K, Waters Associates, Milford, Mass.), 30-cm reverse phase column (μBondapak C18, Waters Associates, Milford, Mass.), UV detector (Model 440, Waters Associates, Milford, Mass.) with wavelength of 280 nm and a dual pen recorder (Soltec Co., Encino, Calif.) which were used at ambient temperature.
# Both dyphylline and theophylline stock standard solutions were prepared to contain 10, 40, 80, 120, 150, 320 or 640 mg of each in 50 ml of distilled water. 20 μl of each was then added into 0.38 ml of rabbit blood to prepare working blood standard solutions.
# The internal standard used was β-hydroxypropyl theophylline (Aldrich Chemical Co., Inc., Milwaukee, Wis.) in acetonitrile which was prepared in a 500 ml volumetric flask as a stock solution, and kept tightly sealed except during use throughout the experiment. Internal standard solution (0.4 ml) was added to an equal volume (0.4 ml) of sample to precipitate protein. After centrifuging for 10 minutes, the supernatant was injected into the HPLC. The HPLC operating conditions included a mobile phase composed of acetonitrile (6 percent V/V) in distilled water and a flow rate of 2.0 ml/min.
# Typical log blood dyphylline concentration versus time plots, for each of the three rabbits following zero-order infusion of 250 mg over fifteen minutes are presented in FIG. 1. […] (1975). Parameters obtained from linear least square fitting of the terminal data to a one-compartment model appear in Table I. The fitted line of the data can be seen in FIG. 1.
# [5] = cited from earlier work; remark: listed apart in the source
# [6] = in vivo
# Procedure: One horse was administered acetyl promazine thiamyol sodium, quaifensin, and halothane to produce general anesthesia. Dyphylline (20 mg/kg) was given as an intravenous bolus injection in less than 15 seconds and aminophylline (10 mg/kg) was given as an infusion over about 20 minutes. Plasma and cerebral spinal fluid were collected and assayed by high pressure liquid chromatography for both dyphylline and theophylline.
# [7] = Single and combined intravenous methyl xanthines in rabbits: heart rate, deaths, plasma concentrations (Example 6); type: in vivo, female rabbits; settings: one rabbit each; normal about 220 bpm
# Procedure: T 40 mg/kg of aminophylline infused at the rate of 0.21 ml/min over 30
# T/D 40 mg/kg of aminophylline infused at the rate of 0.21 ml/min over 30
# T/E 40 mg/kg of aminophylline infused at the rate of 0.21 ml/min over 30
# T/P 40 mg/kg of aminophylline infused at the rate of 0.21 ml/min over 30
# [8] = Dyphylline 20 min intravenous infusion in two healthy male subjects: pharmacokinetics, blood pressure, pulse (Example 2); type: in vivo, human; settings: for V2, volume of peripheral compartment: Vd - V1; for Css, steady state: infusion rate/V1 Ke1, predicted only; for half-life / k el / Vd: human, in vivo, iv, 1000 mg; for half-life: 0.693/β
# Procedure: 1000 mg of the drug dyphylline was infused over twenty minutes in two heathy male patients to determine the volume of distribution of the central compartment.
# A physician evaluated two male volunteer subjects for their drug and disease histories. […] The subjects fasted from 10:00 p.m. before dosing at 7:30 a.m. the following day until four hours post dosing, after which food (except xanthines; i.e. chocolate, tea, coffee) and beverages were allowed ad lib.
# A dose of 1,000 mg of dyphylline (Neothylline®) diluted in normal saline (0.9 percent) was administered at a rate of 50 mg/min via a constant infusion pump for twenty minutes. Blood pressure and electrocardiogram readings were monitored by a physician.
# Whole blood (7 cc) was collected from each subject at time zero just prior to dosing and at 10, 15, 20, 30, 40 minutes and 1.0, 1.5, 2.0, 3.0, 4.0, 5.0, 6.0, 7.0, 8.0, 12.0, and 16.0 hours post dosing with a syringe. The heparin lock was cleared of all heparin solution and the lock filled with subject blood by using a disposable syringe prior to sampling. Each sample was then collected in a new disposable syringe and immediately transferred to a heparinized vacuum tube. After each sampling, the heparin lock was flushed and filled with heparin (10 u/ml). Once samples had been transferred to vacuum tubes, they were inverted several times, then stored in crushed ice until centrifuged and the plasma collected. Plasma samples were then frozen until assayed.
# Plasma and urine samples were assayed by high-pressure liquid chromatography (HPLC) as reported by Gisclon, in the article mentioned above.
# Plasma samples were prepared for assay by mixing 0.5 ml of plasma with 0.5 ml of acetonitrile containing β-hydroxyethyltheophylline (40 mcg/ml) as internal standard, and vortexed 15 seconds. The plasma sample with its protein precipitate was then centrifuged for 15 minutes at 2800 rpm and 5-40 μl injected into the HPLC.
# FIGS. 5 and 6 show dyphylline plasma concentration vs. time curves for the subjects. Solid circles are the data points which were obtained by duplicate analysis of each sample by different analysts and the solid line represents the predicted values obtained after fitting the data with an Autoan computer package which uses CSTRIP and NONLIN (John G. Wagner, Fundamentals of Clinical Pharmacokinetics, Drug Intelligence Publications,Inc., Hamilton, Ill., 1975). This program determined that the data from time zero to 480 min. (8 hr) for subject one and 420 min. (7 hr) for subject two were compatible with a two compartment open model with zero order infusion for 20 minutes and first order elimination from the central compartment only. The fit to the data was quite good with r^2 =0.996 for subject one and 0.997 for subject two. The average percent deviation for the predicted lines from the data points was 7.7 percent and the estimated concentrations averaged 98.9 percent of the observed concentrations.
# [9] = rabbit, blood, iv, 250 mg, 250.0 mg/rabbit over 15 minutes, alone, rabbits 1-3, mean
compound,measurement,setting,value
"Cn1c(=O)c2c(ncn2CC(O)CO)n(C)c1=O (stereo not drawn) [dyphylline, dihydroxypropyl theophylline]",half-time of clearance from the central compartment,[1],four to nine
same,pharmacokinetics at high dose,[2]; Poynor,may produce nonlinear pharmacokinetics
same,concentration not toxic in dogs,[2]; dogs,100 µg/mL
same,average volume of distribution,[3]; 25 mg/kg,1.01 L/kg
same,toxicity at 30 to 50 mcg/ml,"[3]; rabbit, in vivo",not toxic
same,"Ccut, blood concentration at the time the infusion was stopped","[4]; 250.0 mg/rabbit zero-order infusion over 15 minutes, alone, rabbits 1-3, mean, 15 min",81.82 µg/mL and 112.5 µg/mL and 91.70 µg/mL
same,signs of toxicity,[4]; blood concentrations about 80 to 112 mcg/ml,did not exhibit any signs of toxicity
same,half-life,[4]; [9],0.593 h
same,k el,[4]; [9],0.000325 s⁻¹
same,Vd,"[4]; rabbit, blood, iv, 250 mg, 250.0 mg/rabbit over 15 minutes, alone, rabbits 1-3, mean, read-out: Vd1",0.895 L/kg
same,concentration at 0.25 h,"[4]; rabbit, blood, iv, 250 mg, 250.0 mg/rabbit zero-order infusion over 15 minutes, alone, rabbits 1-3, mean, read-out: Ccut, blood concentration at the time the infusion was stopped",80.8 µg/mL
same,concentration at 0.25 h,"[4]; rabbit, blood, iv, 250 mg, 15 minutes, three rabbits, read-out: blood concentration when the infusion was stopped",80 to 112 µg/mL
same,Vd,"[4]; rabbit, blood, iv, 250 mg, Table I, read-out: average apparent volume of distribution of dyphylline administered alone",0.82 L/kg
same,adverse effect,"[5]; 400 mg intravenous, about 48 mcg/ml, Zuidema 1981",no adverse effect
same,plasma concentration,"[5]; 400 mg intravenous, very short time, Zuidema 1981",about 48 mcg/ml
same,protein binding,[5]; Gisclon et al.,may bind nonlinearly to protein
same,intravenous dyphylline accounted for in the urine,[5]; Lawyer,forty-four
same,peak plasma concentration,"[5]; intravenous over ten minutes, one patient, Lawyer",17.4 µg/mL
same,conversion to theophylline in the body,[5]; literature,not converted to theophylline in the body
same,tissue distribution,[5]; literature,"penetrate the central nervous system, to infiltrate heart tissue and to distribute to lung tissue"
same,initial distribution volume,"[5]; person, 73 kg, Lawyer",26.2 L
same,total or steady state volume of distribution,"[5]; person, 73 kg, Lawyer",32.1 L
same,penetration into cerebral spinal fluid,[6],penetrate into cerebral spinal fluid
same,"heart rate, individual drug treatment",[7],76 bpm
same,adverse side effects,"[8]; 1000 mg over 20 min, two subjects",No adverse side effects were observed or reported
same,"Blood pressure, diastolic, Subject Two","[8]; 10 M, 15 M, 20 M (end), 30 M, 40 M, 60 M, 90 M, predose 125/80",80 mm Hg and 85 mm Hg and 75 mm Hg
same,K12,"[8]; Subject 1, 1000 mg over 20 min",1.94 h⁻¹
same,K21,"[8]; Subject 1, 1000 mg over 20 min",2.50 h⁻¹
same,α,"[8]; Subject 1, 1000 mg over 20 min",4.73 h⁻¹
same,"V2, volume of peripheral compartment",[8]; Subject 1,30.28 L
same,"Css, steady state",[8]; Subject 1,142.56 µg/mL
same,K12,"[8]; Subject 2, 1000 mg over 20 min",4.02 h⁻¹
same,K21,"[8]; Subject 2, 1000 mg over 20 min",4.39 h⁻¹
same,α,"[8]; Subject 2, 1000 mg over 20 min",8.83 h⁻¹
same,"V2, volume of peripheral compartment",[8]; Subject 2,25.45 L
same,"Css, steady state",[8]; Subject 2,142.13 µg/mL
same,blood pressure and pulse rate,[8]; during the study,essentially unchanged
same,half-life,[8]; Subject 1,2.11 h
same,k el,"[8]; Subject 1, 1000 mg over 20 min, read-out: Ke1 (converted)",0.000172 s⁻¹
same,k el,"[8]; Subject 1, 1000 mg over 20 min, read-out: β (converted)",9.17e-05 s⁻¹
same,Vd,"[8]; Subject 1, read-out: V1",33.9 L
same,Vd,"[8]; Subject 1, read-out: V3 (footnote: Vd, total volume of distribution)",64.2 L
same,half-life,[8]; Subject 2,1.66 h
same,k el,"[8]; Subject 2, 1000 mg over 20 min, read-out: Ke1 (converted)",0.000233 s⁻¹
same,k el,"[8]; Subject 2, 1000 mg over 20 min, read-out: β (converted)",0.000117 s⁻¹
same,Vd,"[8]; Subject 2, read-out: V1",25.1 L
same,Vd,"[8]; Subject 2, read-out: V3 (footnote: Vd, total volume of distribution)",50.6 L
same,Vd,"[8]; two subjects, range, read-out: volume of the central compartment per kg",0.35 to 0.47 L/kg
same,Vd,"[8]; two subjects, read-out: total volume of distribution, average",~0.8 L/kg
same,Vd,"[8]; two subjects, read-out: volume of the central compartment",25 to 34 L
same,Vd,"[8]; two subjects, read-out: volume of the central compartment, average",~0.41 L/kg
